Common to all, as to experiment: NCI tumour cell line growth inhibition, 48 h
Test [1] deals with SF-539 CNS.
Test [2] relates to EKVX NSCLC.
In test [3] the test system is SK-OV-3 ovarian.
Test [4] has as its system NCI-H23 lung.
Test [5] has as its system K-562 leukemia.
Test [6] concerns A549 NSCLC.
Test [7] relates to SW-620 colon.
For test [8], the system named is UACC-62 melanoma.
Test [9] relates to NCI-H226 lung.
The subject of test [10] is UO-31 renal.

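Each compound was tested at five concentrations against cells in 96-well plates for 48 hours. GI50 is the concentration that inhibits growth by half. TGI: concentration producing complete growth inhibition.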 A value given as a limit tells only on which side of the number the result lay.

We go through seven molecules from PubChem BioAssay (NCI).

For the molecule `COC(=O)CCCNC(=O)C(=O)c1c(O)c(O)c(C(C)C)c2cc(C)c(-c3c(C)cc4c(C(C)C)c(O)c(O)c(C(=O)C(=O)NCCCC(=O)OC)c4c3O)c(O)c12`, the GI50 was 0.997 µM in test [1]; 0.317 µM in test [2]; 0.855 µM in [3]; 0.363 µM in test [4]; 0.246 µM in [5]; 0.255 µM in test [6]. Also, the GI50 in [7] was 0.74 µM; in test [8] it was 0.657 µM; in test [9] it was 0.575 µM; in test [10] it was 0.558 µM. Further, the TGI is 5.17 µM in test [1]; 3.79 µM in test [2]; 2.57 µM in test [3]; 6.03 µM in [4]; 6.88 µM in [5]; 4.01 µM in test [6]. In addition, the TGI in test [7] is 5.52 µM; in test [8] it was 2.07 µM; in test [9], 2.94 µM; in [10], 4.05 µM.

Take `CN1CCN(Cc2ccc(NC(=O)c3cccc(C#Cc4c(N)ncc5ccc(F)cc45)c3)cc2C(F)(F)F)CC1`: the GI50 was 0.548 µM in test [1]; 0.879 µM in test [2]; 1.19 µM in test [3]; 0.865 µM in test [4]; 0.005 µM in test [5]; 0.877 µM in [6]. Moreover, the GI50 in test [7] was 0.645 µM; in [8], 0.698 µM; in test [9], 0.265 µM; in [10] it was 0.533 µM. In addition, the TGI stood at 1.19 µM in test [1]; 1.95 µM in [2]; 2.99 µM in [3]; 1.67 µM in [4]; 0.674 µM in test [5]; 1.77 µM in test [6]. The TGI in [7] worked out at 1.39 µM; in test [8], 1.4 µM; in [9], 2.7 µM; in test [10], 1.27 µM.

On to `COc1ccc(C[C@H]2NC[C@H](O)[C@H]2OC(C)=O)cc1`, for which the TGI is 0.14 µM in test [1]; 0.344 µM in test [2]; 0.895 µM in test [3]; 0.52 µM in test [4]; 0.11 µM in [5]; 3.48 µM in test [6]. The TGI in [7] is 0.15 µM; in [8], 0.225 µM; in test [9], 0.242 µM; in test [10], 0.181 µM. The GI50 in test [6] was 0.0413 µM.

Turning to `OCCCCCNc1ccnc2cc(Cl)ccc12`, the TGI in test [1] was > 100 µM; in [2], > 100 µM; in test [3], > 100 µM; in test [4], > 100 µM; in [5] it was 64.7 µM; in test [6] it was > 100 µM. Besides, the TGI in test [7], in test [8], in [9] and in [10] was > 100 µM in each case.

Turning to `CCOC(=O)c1csc(-c2nc(CCNC(=O)c3ccccc3)sc2Cl)n1`, the TGI in [1], in test [2], in [3], in [4], in test [5] and in [6] was > 100 µM each time. Moreover, the TGI in [7], in test [8], in test [9] and in test [10] was > 100 µM in each case.

Turning to `Clc1nc(-c2ccccc2)nc(Cl)c1Cl`, the TGI in test [1] was 33.9 µM; in test [2], 31.5 µM; in [3], 27 µM; in test [4], 32.6 µM; in test [5], > 43.2 µM; in [6] it was 33.1 µM. In addition, the TGI in [7] is 15.1 µM; in [8], 27.8 µM; in [9], 28.1 µM; in test [10] it was > 57.5 µM.

With `CC(C)C1NC(=O)[C@H](C)OC(=O)[C@@H](C(C)C)NC(=O)[C@@H](C)OC(=O)C(C(C)C)NC(=O)[C@H](C)OC1=O` (stereo partly specified), the TGI in test [1] is > 81.7 µM; in test [2], > 100 µM; in [3], > 100 µM; in test [4], > 100 µM; in test [5], > 59.3 µM; in [6], > 100 µM. The TGI was > 51.7 µM in [7], > 100 µM in [8], > 100 µM in test [9] and > 100 µM in [10].
